Results taken from patent US11352350B2, “IRAK degraders and uses thereof” (Kymera Therapeutics, Inc., priority 2018, dated 2022).
pIC50: −log10 of the molar value. Where two headings read alike, the source gives them in different places.

How the values were obtained:
OCI-LY10 = assay: CTG Cell Viability Assay - OCI-LY10; format: cell-based, human; conditions: OCI-LY10, 4 days, read-out: CTG Cell Viability Assay - OCI-LY10: Average external-IC50
Description: Compound-mediated viability effect on OCI-LY10 or TMD8 was quantitatively determined using the CellTiter-Glo® Luminescent Cell Viability Assay kit from Promega (Catalog number G7570) following manufacturer's recommended procedures. […] Compounds were then added to the assay plate with final top concentration of 10 μM and 1:3 dilution series with total of 9 doses. The final DMSO concentration was normalized to 0.2%. The assay plates were incubated at 37° C. for 4 days under 5% CO2. Then the assay plate was equilibrated at room temperature for 10 minutes. […] The data was then analyzed by software Prism 7.0 from GraphPad and the dose response curves were fit using a three-parameter logistic equation to calculate IC50.

IRAK4 = IRAK4 (Homo sapiens (Human), UniProt Q9NWZ3); assay: IRAK4 MSD degradation in OCI-LY10; format: cell-based
How it was run: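 Remaining IRAK4 quantified by electrochemiluminescent MSD sandwich assay with two anti-IRAK4 antibodies. Compounds were dosed as 8 concentrations in 1:3 steps from a 1 to 10 μM final top on OCI-LY10 cells, incubated 4 to 24 h at 37° C. under 5% CO2. DC50 fitted with a three-parameter logistic curve.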

[1] = OCI-LY10, 4 hrs, MSD, read-out: IRAK4 MSD degradation in OCI-LY10 at 4 hrs: Average external-Abs DC50
[2] = OCI-LY10, 24 hrs, MSD, read-out: IRAK4 MSD degradation in OCI-LY10 at 24 hrs: Average external-Abs DC50

Chain of IRAK4 (Q9NWZ3 whole entry): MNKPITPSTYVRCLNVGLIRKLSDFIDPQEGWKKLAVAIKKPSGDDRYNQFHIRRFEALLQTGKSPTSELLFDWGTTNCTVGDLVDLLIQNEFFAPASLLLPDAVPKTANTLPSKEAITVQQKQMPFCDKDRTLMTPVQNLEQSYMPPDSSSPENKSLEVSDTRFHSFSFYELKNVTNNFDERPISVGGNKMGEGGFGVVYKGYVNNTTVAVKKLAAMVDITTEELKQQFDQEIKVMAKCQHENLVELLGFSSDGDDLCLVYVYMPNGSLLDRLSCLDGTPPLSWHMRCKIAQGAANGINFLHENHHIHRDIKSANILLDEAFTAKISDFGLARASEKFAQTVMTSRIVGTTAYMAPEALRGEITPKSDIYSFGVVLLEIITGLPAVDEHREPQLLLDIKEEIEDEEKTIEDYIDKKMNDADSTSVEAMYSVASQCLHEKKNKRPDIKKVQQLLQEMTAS

| Structure (SMILES) | pIC50 (OCI-LY10; Homo sapiens, OCI-Ly10, 96 h) | DC50 (IRAK4; [1]) [nM] | DC50 (IRAK4; [2]) [nM] | DC50 (IRAK4; OCI-LY10, 4 hrs, read-out: IRAK4 MSD degradation in OCI-LY10 at 4 hrs: DC50) [nM] | DC50 (IRAK4; OCI-LY10, 24 hrs, read-out: IRAK4 MSD degradation in OCI-LY10 at 24 hrs: DC50) [nM] | pIC50 (OCI-LY10) |
| --- | --- | --- | --- | --- | --- | --- |
| Cn1c(=O)n(C2CCC(=O)NC2=O)c2cccc(CCCOC3CCN([C@H]4CC[C@@H](Nc5ncnc6ccc(C#N)cc56)CC4)CC3)c21 (stereo partly shown) [I-305, 4-[[4-[4-[3-[1-(2,6-dioxo-3-piperidyl)-3-methyl-2-oxo-benzimidazol-4-yl]propoxy]-1-piperidyl]cyclohexyl]amino]quinazoline-6-carbonitrile] | < 6.00 | > 1000 | > 1000 |  |  |  |
| Cn1c(=O)n(C2CCC(=O)NC2=O)c2cccc(CCCOCCC(=O)N3CCN([C@H]4CC[C@H](Nc5ncnc6ccc(C#N)cc56)CC4)CC3)c21 (stereo partly shown) [I-159] | < 6.00 | > 1000 | > 1000 |  |  |  |
| O=C1CCC(N2C(=O)c3cccc(NC[C@H]4CC[C@H](OC5CCN(C[C@H]6CC[C@H](n7cc(NC(=O)c8cnn9ccc(N%10CCOCC%10)nc89)c(C(F)F)n7)CC6)CC5)CC4)c3C2=O)C(=O)N1 (stereo partly shown) [I-473] | > 7.30 |  |  | 10 to 100 | < 10 |  |
| Cc1c[nH]c2ncnc(N[C@H]3CC[C@H](N4CCN(C(=O)CCOCCCc5ccc6c(c5)n(C)c(=O)n6C5CCC(=O)NC5=O)CC4)CC3)c12 (stereo partly shown) [I-24] | < 6.00 | > 1000 | > 1000 |  |  |  |
| COc1cc(C(=O)NCCCCN(C)C[C@H]2CC[C@H](n3cc(NC(=O)c4coc(-c5ccnc(NCC6CC6)c5)n4)c(C(F)F)n3)CC2)ccc1NC(=O)[C@@H]1N[C@@H](CC(C)(C)C)[C@](C#N)(c2ccc(Cl)cc2F)[C@H]1c1cccc(Cl)c1F [I-142] |  | > 1000 | > 1000 |  |  | < 6.00 |
| CN(C[C@H]1CN(CCCNc2cccc3c2C(=O)N(C2CCC(=O)NC2=O)C3=O)CCO1)C[C@H]1CC[C@H](n2cc(NC(=O)c3cnn4ccc(N5C[C@H]6C[C@@H]5CO6)nc34)c(C(F)F)n2)CC1 (stereo partly shown) [I-349] | > 7.30 | 100 to 1000 | 10 to 100 |  |  |  |
| CN1C(=O)CCC(N2C(=O)c3cccc(NCC4CC5(CCN(C[C@H]6CC[C@H](n7cc(NC(=O)c8cnn9ccc(N%10C[C@H]%11C[C@@H]%10CO%11)nc89)c(C(F)F)n7)CC6)CC5)C4)c3C2=O)C1=O (stereo partly shown) [I-323] | < 6.00 | 100 to 1000 | > 1000 |  |  |  |
| CN(CCN1CCO[C@H](CCNc2cccc3c2C(=O)N(C2CCC(=O)NC2=O)C3=O)C1)C[C@H]1CC[C@H](n2cc(NC(=O)c3cnn4ccc(N5C[C@H]6C[C@@H]5CO6)nc34)c(C(F)F)n2)CC1 (stereo partly shown) [I-340] | 6.30 to 7.00 | 100 to 1000 | 10 to 100 |  |  |  |
| Cn1c(=O)n(C2CCC(=O)NC2=O)c2ccc(CCCOC3CCN(C[C@H]4CC[C@H](n5cc(NC(=O)c6cnn7ccc(N[C@@H]8CCCC[C@@H]8O)nc67)c(C(F)F)n5)CC4)CC3)cc21 (stereo partly shown) [I-280] | < 6.00 | 10 to 100 |  |  |  |  |
| CN(CCCOCCCNC(=O)c1ccc(CNCc2ccc(-c3ccc4c(cnn4CC4CC4)c3)cc2)cc1)C[C@H]1CC[C@H](n2cc(NC(=O)c3coc(-c4ccnc(NCC5CC5)c4)n3)c(C(F)F)n2)CC1 [I-131] | < 6.00 | > 1000 | > 1000 |  |  |  |
| COc1cc(C(=O)NCCCCCCN(C)C(=O)[C@H]2CC[C@H](n3cc(NC(=O)c4coc(-c5ccnc(NCC6CC6)c5)n4)c(C(F)F)n3)CC2)ccc1NC(=O)[C@@H]1N[C@@H](CC(C)(C)C)[C@](C#N)(c2ccc(Cl)cc2F)[C@H]1c1cccc(Cl)c1F [I-143] |  | > 1000 | > 1000 |  |  | < 6.00 |
| CN(C[C@H]1CC[C@H](n2cc(NC(=O)c3cnn4ccc(N5CCOCC5)nc34)c(C(F)F)n2)CC1)C1CCN(Cc2cccc3c2n(C)c(=O)n3C2CCC(=O)NC2=O)CC1 (stereo partly shown) [I-213] | < 6.00 | < 10 |  |  |  |  |
| O=C1CCC(N2C(=O)c3ccnc(NCCCOC4CCN(Cc5ccc(-n6cc(NC(=O)c7cnn8ccc(N9CCOCC9)nc78)c(C(F)F)n6)cc5)CC4)c3C2=O)C(=O)N1 (stereo not shown) [I-441] | < 6.00 | 10 to 100 | 10 to 100 |  |  |  |
